What was measured:
Interstitial collagenase = biological target: T1, Interstitial collagenase (Homo sapiens, UniProt P03956); assay: Inhibition of matrix metalloprotease-1, Collagenase-1
T1 sequence (P03956 whole entry): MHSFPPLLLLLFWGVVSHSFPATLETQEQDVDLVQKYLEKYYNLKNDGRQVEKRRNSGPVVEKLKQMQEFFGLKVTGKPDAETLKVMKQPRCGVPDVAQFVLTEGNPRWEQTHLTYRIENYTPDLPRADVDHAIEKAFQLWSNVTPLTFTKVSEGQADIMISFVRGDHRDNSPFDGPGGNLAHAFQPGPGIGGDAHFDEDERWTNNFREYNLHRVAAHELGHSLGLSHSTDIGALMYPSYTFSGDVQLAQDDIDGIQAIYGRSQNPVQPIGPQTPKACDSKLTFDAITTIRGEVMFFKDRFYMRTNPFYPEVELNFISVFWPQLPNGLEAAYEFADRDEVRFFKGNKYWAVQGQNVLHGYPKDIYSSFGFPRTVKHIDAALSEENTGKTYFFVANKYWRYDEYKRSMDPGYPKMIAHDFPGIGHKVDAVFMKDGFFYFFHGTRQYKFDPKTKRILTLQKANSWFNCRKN

Stromelysin-1 = Stromelysin-1 (Homo sapiens, UniProt P08254); assay: Inhibition of matrix metalloprotease-3, stromelysin-1
Stromelysin-1, sequence (P08254 whole entry): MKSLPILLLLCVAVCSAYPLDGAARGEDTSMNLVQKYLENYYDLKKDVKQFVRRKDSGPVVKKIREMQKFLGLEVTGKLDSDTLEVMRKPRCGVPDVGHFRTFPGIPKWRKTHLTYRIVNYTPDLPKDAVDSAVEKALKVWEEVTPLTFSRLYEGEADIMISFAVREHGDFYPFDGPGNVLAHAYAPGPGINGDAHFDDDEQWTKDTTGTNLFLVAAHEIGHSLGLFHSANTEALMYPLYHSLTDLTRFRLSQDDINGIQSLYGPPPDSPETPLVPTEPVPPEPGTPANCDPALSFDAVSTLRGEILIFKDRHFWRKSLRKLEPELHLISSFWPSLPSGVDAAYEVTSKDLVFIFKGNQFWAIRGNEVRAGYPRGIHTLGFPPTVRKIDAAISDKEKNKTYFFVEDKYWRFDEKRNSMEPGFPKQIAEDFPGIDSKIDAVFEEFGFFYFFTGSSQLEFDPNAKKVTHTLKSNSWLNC

[1] = biological target: Matrix metalloproteinase-9 (Homo sapiens, UniProt P14780); assay: Inhibition of matrix metalloprotease-9, gelatinase-B
Matrix metalloproteinase-9, sequence (P14780 whole entry): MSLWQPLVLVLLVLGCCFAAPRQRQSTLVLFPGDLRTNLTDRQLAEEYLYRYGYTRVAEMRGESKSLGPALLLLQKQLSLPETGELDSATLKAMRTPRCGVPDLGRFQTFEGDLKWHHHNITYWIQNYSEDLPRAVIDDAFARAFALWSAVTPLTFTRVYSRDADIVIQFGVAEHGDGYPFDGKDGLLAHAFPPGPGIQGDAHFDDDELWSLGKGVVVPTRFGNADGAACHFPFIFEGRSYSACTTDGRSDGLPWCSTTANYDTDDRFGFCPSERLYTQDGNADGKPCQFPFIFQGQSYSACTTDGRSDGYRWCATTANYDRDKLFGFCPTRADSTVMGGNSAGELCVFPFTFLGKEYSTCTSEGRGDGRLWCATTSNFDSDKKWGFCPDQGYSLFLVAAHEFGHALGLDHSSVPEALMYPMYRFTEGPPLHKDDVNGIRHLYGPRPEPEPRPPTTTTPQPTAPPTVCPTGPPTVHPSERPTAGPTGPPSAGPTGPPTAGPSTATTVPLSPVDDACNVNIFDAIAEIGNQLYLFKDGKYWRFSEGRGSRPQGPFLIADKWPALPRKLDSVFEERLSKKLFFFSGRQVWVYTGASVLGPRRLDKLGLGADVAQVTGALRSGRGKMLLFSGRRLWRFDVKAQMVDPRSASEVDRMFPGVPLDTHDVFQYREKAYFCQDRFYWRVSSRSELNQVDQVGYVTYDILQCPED

Row | IC50 (Interstitial collagenase) [nM] | IC50 (Stromelysin-1) [nM] | IC50 [1] [nM] | SMILES
1 | > 4000 | 39 | 24 | CCCCCCC[C@H](C[C@H](O)CS)C(=O)N[C@@H](CC(C)C)C(=O)NC(=O)C(CC(C)C)NCC (stereo not given in full)
2 | 10 | 8 | 0.14 | CCCCCCC[C@H](CC(=O)CS)C(=O)N[C@H](C(=O)NC)C(C)(C)C
3 | > 10000 | 36 | 20 | CCCCCCC[C@H](CC(=O)CS)C(=O)N[C@@H](CC(C)C)C(=O)NC(=O)C(CC(C)C)NCC (stereo not given in full)

The remaining lines, values behind:

Row | SMILES | IC50 (Interstitial collagenase) [nM] | IC50 (Stromelysin-1) [nM] | IC50 [1] [nM]
4 | CCCCCCC[C@H](C[C@H](O)CS)C(=O)N[C@H](C(=O)NC)C(C)(C)C | 5 | 9 | 0.14
5 | CNC(=O)[C@@H](NC(=O)[C@H](CC(C)C)C[C@@H](O)CS)C(C)(C)C | 46 | 3700 | 250
6 | CNC(=O)[C@@H](NC(=O)[C@@H](CC(=O)NO)CC(C)C)C(C)(C)C [RO-319790] | 5 |  | 
7 | CNC(=O)[C@@H](NC(=O)[C@H](CC(C)C)C[C@H](O)CS)C(C)(C)C | 11 | 470 | 8
8 | CNC(=O)[C@@H](NC(=O)[C@@H](CC(=O)CS)CC(C)C)C(C)(C)C | 11 | 480 | 8
9 | CCCCCCC[C@H](C[C@@H](O)CS)C(=O)N[C@H](C(=O)NC)C(C)(C)C | 140 | 430 | 12

— ChEMBL document CHEMBL1130987, “The asymmetric synthesis and in vitro characterization of succinyl mercaptoalcohol and mercaptoketone inhibitors of matrix metalloproteinases” (Bioorg Med Chem Lett, 1998)
